Experimental data: patent US20100137313A1 (ASTRAZENECA AB, priority 2008, published 2010)
In brackets after ≈: the same amount, converted by molar mass.

Columns and labels:
[1] = molecular target: S. pneumoniae Topoisomerase IV ATPase (ParE) (Streptococcus pneumoniae serotype 4, UniProt Q59961); assay: S. pneumoniae Topoisomerase IV ATPase inhibition; format: biochemical; conditions: values marked * are an average of two or more data points, read-out: % Inh (13 μM) of S. pneumoniae Topoisomerase IV ATPase
S. pneumoniae Topoisomerase IV ATPase (ParE), sequence (Q59961 whole entry): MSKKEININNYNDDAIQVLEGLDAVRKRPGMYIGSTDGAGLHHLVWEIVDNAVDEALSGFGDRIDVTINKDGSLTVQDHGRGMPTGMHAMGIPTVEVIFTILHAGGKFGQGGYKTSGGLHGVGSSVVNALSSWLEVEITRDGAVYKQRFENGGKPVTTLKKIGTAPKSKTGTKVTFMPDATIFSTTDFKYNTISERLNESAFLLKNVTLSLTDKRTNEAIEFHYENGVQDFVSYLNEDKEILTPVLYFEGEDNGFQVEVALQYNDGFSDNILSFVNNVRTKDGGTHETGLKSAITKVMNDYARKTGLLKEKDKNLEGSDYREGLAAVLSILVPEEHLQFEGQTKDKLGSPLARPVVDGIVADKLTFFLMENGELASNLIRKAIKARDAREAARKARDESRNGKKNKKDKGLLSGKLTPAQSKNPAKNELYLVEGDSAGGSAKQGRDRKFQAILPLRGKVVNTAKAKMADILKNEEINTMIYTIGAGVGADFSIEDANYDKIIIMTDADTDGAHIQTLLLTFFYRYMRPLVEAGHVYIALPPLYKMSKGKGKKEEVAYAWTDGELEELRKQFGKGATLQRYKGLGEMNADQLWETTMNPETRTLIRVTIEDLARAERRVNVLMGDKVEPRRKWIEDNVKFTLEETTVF
How it was run: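 Phosphate-release ATPase assay: 1.25 nM ParE, 160 μM ATP, DNA-stimulated. Quench with malachite green/molybdate in 1 M HCl, read 650 nm; IC50 from 10-point dose series.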

Mca 445 (gram−) = assay: Bacterial susceptibility testing in liquid media (MIC); format: cell-based; conditions: Moraxella catarrhalis; lowest concentration reducing growth by 80% or more; 37° C., 24 hrs
Text: (§1) Compounds may be tested for antimicrobial activity by susceptibility testing in liquid media. Compounds may be dissolved in dimethylsulfoxide and tested in 10 doubling dilutions in the susceptibility assays. The organisms used in the assay may be grown overnight on suitable agar media and then suspended in a liquid medium appropriate for the growth of the organism. The suspension can be a 0.5 McFarland and a further 1 in 10 dilution can be made into the same liquid medium to prepare the final organism suspension in 100 μL. Plates can be incubated under appropriate conditions at 37° C. for 24 hrs prior to reading. The Minimum Inhibitory Concentration (MIC) may be determined as the lowest drug concentration able to reduce growth by 80% or more.

Spn 548 (gram+) = assay: as above; format: cell-based; conditions: Streptococcus pneumoniae; lowest concentration reducing growth by 80% or more; 37° C., 24 hrs
Text: as §1

Spy 838 (gram+) = assay: as above; format: cell-based; conditions: Streptococcus pyogenes; lowest concentration reducing growth by 80% or more; 37° C., 24 hrs
Text: as §1

SMILES | inhibition at 13 µM [1] | MIC (Mca 445 (gram−)) | MIC (Spn 548 (gram+)) | MIC (Spy 838 (gram+))
O=C(O)c1ccc(-c2cnc(Nc3ccc(F)c(Cl)c3)nc2N2CCOCC2)s1 [Example 176, 5-(2-(3-chloro-4-fluorophenylamino)-4-morpholinopyrimidin-5-yl)thiophene-2-carboxylic acid] | 89% | 0.78 µM (≈ 0.339 µg/mL) | 6.25 µM (≈ 2.72 µg/mL) | 12.5 µM (≈ 5.44 µg/mL)
NCCCNc1nc(Nc2ccc(F)c(Cl)c2)ncc1-c1cncnc1 [Ex 211] | 76.6% | 12.5 µM (≈ 4.67 µg/mL) | 25 µM (≈ 9.35 µg/mL) | 25 µM (≈ 9.35 µg/mL)
Fc1ccc(Nc2ncc(-c3cncnc3)c(NCCc3ccncc3)n2)cc1Cl [Example 46, N^2-(3-chloro-4-fluorophenyl)-N^4-(2-pyridin-4-ylethyl)-5-pyrimidin-5-ylpyrimidine-2,4-diamine] | 93.5% | 3.13 µM (≈ 1.32 µg/mL) | 3.13 µM (≈ 1.32 µg/mL) | 8.84 µM (≈ 3.73 µg/mL)
O=C(O)c1cncc(-c2cnc(Nc3ccc4c(c3)OCO4)nc2-n2ccc(C(F)(F)F)n2)c1 [Example 670, 5-{2-(1,3-benzodioxol-5-ylamino)-4-[3-(trifluoromethyl)-1H-pyrazol-1-yl]pyrimidin-5-yl}pyridine-3-carboxylic acid] | 100% | – | – | –
CCOC(=O)c1cncc(-c2cnc(Nc3ccc(F)c(Cl)c3)nc2NCCCN2CCOCC2)c1 [Example 106, 5-[2-(3-Chloro-4-fluoro-phenylamino)-4-(3-morpholin-4-yl-propylamino)-pyrimidin-5-yl]-nicotinic acid ethyl ester] | 40.8% | – | – | –
COc1cc(F)cc(Nc2ncc(-c3ccc(C(=O)O)o3)c(-n3ccc(C(F)(F)F)n3)n2)c1 [Example 892, 5-(2-(3-fluoro-5-methoxyphenylamino)-4-(3-(trifluoromethyl)-1H-pyrazol-1-yl)pyrimidin-5-yl)furan-2-carboxylic acid] | 100% | – | – | –
COc1cc(C#N)cc(Nc2ncc(-c3cccc(/C=C/C(=O)O)c3)c(-n3ccc(C(F)(F)F)n3)n2)c1 [Example 728, (2E)-3-(3-{2-[(3-cyano-5-methoxyphenyl)amino]-4-[3-(trifluoromethyl)-1H-pyrazol-1-yl]pyrimidin-5-yl}phenyl)prop-2-enoic acid] | 100% | – | – | –
